Target: MAPK14 (human) (UniProt Q16539)
Experiment: Inhibition of MAPK14 Kinase Activity

Chain of MAPK14 (human) (Q16539 whole entry, looked up): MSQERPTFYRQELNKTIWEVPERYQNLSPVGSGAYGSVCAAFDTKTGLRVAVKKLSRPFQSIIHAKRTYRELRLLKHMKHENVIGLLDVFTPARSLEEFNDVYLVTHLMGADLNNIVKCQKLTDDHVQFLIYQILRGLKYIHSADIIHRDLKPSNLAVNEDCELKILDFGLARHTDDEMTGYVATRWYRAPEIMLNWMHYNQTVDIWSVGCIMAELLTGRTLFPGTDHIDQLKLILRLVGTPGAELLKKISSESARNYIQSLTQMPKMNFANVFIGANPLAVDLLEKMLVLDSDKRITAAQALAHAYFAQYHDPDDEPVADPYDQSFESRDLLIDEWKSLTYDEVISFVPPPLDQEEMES

Row | IC50 [µM] | SMILES
1 | ≤ 1 | CC(C)NC(=O)c1csc(-c2oc(CN3CCN(C(=O)c4cccc(O)c4O)CC3)nc2-c2ccc(F)cc2)n1
2 | ≤ 1 | CC(C)NC(=O)n1ccc(-c2c(-c3ccc(F)cc3)noc2CN2CCOCC2)n1
3 | ≤ 1 | CC(C)NC(=O)c1csc(-c2c(-c3ccc(F)cc3)n[nH]c2C2CCN(C(=O)C(F)(F)F)CC2)n1
4 | ≤ 1 | C#CCNC(=O)c1csc(-c2c(-c3ccc(F)cc3)n[nH]c2C2CCNCC2)n1
5 | ≤ 1 | CC(C)NC(=O)c1csc(-c2oc(CNC(=O)c3cc([N+](=O)[O-])ccc3O)nc2-c2ccc(F)cc2)n1
6 | ≤ 1 | CC(C)NC(=O)c1csc(-c2oc(CNC(=O)c3ccc([N+](=O)[O-])cc3Cl)nc2-c2ccc(F)cc2)n1
7 | ≤ 1 | CC(C)NC(=O)c1csc(-c2oc(CNC(=O)c3ccc(F)cc3Cl)nc2-c2ccc(F)cc2)n1
8 | ≤ 1 | CC(C)NC(=O)c1csc(-c2oc(CN(C)C)nc2-c2ccc(F)cc2)n1
9 | ≤ 1 | CC(C)NC(=O)c1csc(-c2oc(CN3CCN(C(=O)C(Cc4ccc(O)cc4)NC(=O)OC(C)(C)C)CC3)nc2-c2ccc(F)cc2)n1 (configuration not stated)
10 | ≤ 1 | Cc1nc(-c2ccc(F)cc2)c(-c2nc(C(=O)NCCc3ccccc3)cs2)s1
11 | ≤ 1 | COC(=O)N1CCC(c2[nH]nc(-c3ccc(F)cc3)c2-c2nc(C(=O)NC(C)C)cs2)CC1
12 | ≤ 1 | CC(C)NC(=O)c1csc(-c2oc(CN3CCN(C(=O)C4CCCCC4)CC3)nc2-c2ccc(F)cc2)n1
13 | ≤ 1 | Cc1nc(-c2ccc(F)cc2)c(-c2nc(C(=O)NCCCN(C)c3ccccc3)cs2)s1
14 | ≤ 1 | Cc1nc(-c2ccc(F)cc2)c(-c2nc(C(=O)NCC(C)c3ccccc3)cs2)s1 (configuration not stated)
15 | ≤ 1 | CC(C)C(CO)NC(=O)c1csc(-c2c(-c3ccc(F)cc3)n[nH]c2C2CCNCC2)n1 (configuration not stated)
16 | ≤ 1 | COc1ccc(C(=O)N2CCN(Cc3nc(-c4ccc(F)cc4)c(-c4nc(C(=O)NC(C)C)cs4)o3)CC2)c(O)c1
17 | ≤ 1 | CC(C)NC(=O)c1csc(-c2oc(CN3CCN(C(=O)c4ccc5ncccc5c4)CC3)nc2-c2ccc(F)cc2)n1
18 | ≤ 1 | Cc1nc(-c2ccc(F)cc2)c(-c2nc(C(=O)NCCO)cs2)s1
19 | ≤ 1 | COc1cccc(O)c1C(=O)N1CCN(Cc2nc(-c3ccc(F)cc3)c(-c3nc(C(=O)NC(C)C)cs3)o2)CC1

Row | IC50 [µM] | SMILES
20 | ≤ 1 | Cc1cccc(C(=O)NCc2nc(-c3ccc(F)cc3)c(-c3nc(C(=O)NC(C)C)cs3)o2)c1[N+](=O)[O-]
21 | ≤ 1 | CC(C)NC(=O)c1csc(-c2c(-c3ccc(F)cc3)n[nH]c2C2CCN(C(=O)C(C(C)C)N(C)C(=O)OC(C)(C)C)CC2)n1 (configuration not stated)
22 | ≤ 1 | Cc1onc(-c2ccc(Cl)cc2)c1-c1ccn(C(=O)NC(C)CO)n1 (configuration not stated)
23 | ≤ 1 | CC(=O)c1ccccc1C(=O)N1CCN(Cc2nc(-c3ccc(F)cc3)c(-c3nc(C(=O)NC(C)C)cs3)o2)CC1
24 | ≤ 1 | CC(C)NC(=O)c1csc(-c2[nH]c(CN3CCOCC3)nc2-c2ccc(F)cc2)n1
25 | ≤ 1 | Cc1nc(-c2ccc(F)cc2)c(-c2nc(C(=O)NCCc3ccc(Cl)cc3)cs2)s1
26 | ≤ 1 | Cc1onc(-c2ccc(Cl)cc2)c1-c1ccn(C(=O)NCC(C)C)n1
27 | ≤ 1 | CC(C)NC(=O)c1csc(-c2oc(CNC(=O)CCc3cccc(C(F)(F)F)c3)nc2-c2ccc(F)cc2)n1
28 | ≤ 1 | CC(C)NC(=O)c1csc(-c2oc(CN3CCN(C(=O)C(F)(F)F)CC3)nc2-c2ccc(F)cc2)n1
29 | ≤ 1 | COc1cc(C=CC(=O)NCc2nc(-c3ccc(F)cc3)c(-c3nc(C(=O)NC(C)C)cs3)o2)ccc1O
30 | ≤ 1 | Cc1onc(-c2ccc(Cl)cc2)c1-c1ccn(C(=O)NC(C)C)n1
31 | ≤ 1 | CC(C)NC(=O)c1csc(-c2c(-c3ccc(F)cc3)noc2CNC(=O)Cc2cccc(O)c2)n1
32 | ≤ 1 | Cc1onc(-c2ccccc2)c1-c1ccn(C(=O)NC(C)C)n1
33 | ≤ 1 | CC(C)NC(=O)c1csc(-c2c(-c3ccc(F)cc3)ncn2C2CCN(C(=O)CO)CC2)n1
34 | ≤ 1 | Cc1nc(-c2ccc(F)cc2)c(-c2nc(C(=O)NC(CO)C(C)C)cs2)s1 (configuration not stated)
35 | ≤ 1 | CC(C)Cc1ccc(C(C)C(=O)N2CCN(Cc3nc(-c4ccc(F)cc4)c(-c4nc(C(=O)NC(C)C)cs4)o3)CC2)cc1 (configuration not stated)
36 | ≤ 1 | Cc1nc(-c2ccc(F)cc2)c(-c2nc(C(=O)NCc3ccc(Cl)cc3)cs2)s1
37 | ≤ 1 | Cc1ccc(O)c(C(=O)N2CCN(Cc3nc(-c4ccc(F)cc4)c(-c4nc(C(=O)NC(C)C)cs4)o3)CC2)c1

The next lines start with the compound.

Row | SMILES | IC50 [µM]
38 | CC(C)NC(=O)c1csc(-c2c(-c3ccc(F)cc3)n[nH]c2C2CCN(C(=O)c3cc(O)c(O)c(O)c3)CC2)n1 | ≤ 1
39 | CC(C)NC(=O)c1csc(-c2c(-c3ccc(F)cc3)n[nH]c2C2CCN(C(=O)c3cccnc3)CC2)n1 | ≤ 1
40 | CC(C)NC(=O)c1csc(-c2oc(CNC(=O)c3cc(Cl)c(O)c(Cl)c3)nc2-c2ccc(F)cc2)n1 | ≤ 1
41 | CC(C)NC(=O)c1csc(-c2c(-c3ccc(F)cc3)n[nH]c2C2CCN(C(=O)c3cncc(Br)c3)CC2)n1 | ≤ 1
42 | COc1cc2c(cc1OC)CN(C(=O)c1csc(-c3sc(C)nc3-c3ccc(F)cc3)n1)CC2 | ≤ 1
43 | Cc1ccc([N+](=O)[O-])c(C(=O)NCc2onc(-c3ccc(F)cc3)c2-c2nc(C(=O)NC(C)C)cs2)c1 | ≤ 1
44 | CC(C)NC(=O)c1csc(-c2oc(CN3CCN(C(=O)Cc4ccc(Br)cc4)CC3)nc2-c2ccc(F)cc2)n1 | ≤ 1
45 | COc1cc(OC)c(C(=O)N2CCN(Cc3nc(-c4ccc(F)cc4)c(-c4nc(C(=O)NC(C)C)cs4)o3)CC2)cc1OC | ≤ 1
46 | COc1cc(OC)c(C(=O)NCc2nc(-c3ccc(F)cc3)c(-c3nc(C(=O)NC(C)C)cs3)o2)c(OC)c1 | ≤ 1
47 | CONC(=O)c1csc(-c2c(-c3ccc(F)cc3)n[nH]c2C2CCNCC2)n1 | ≤ 1
48 | CC(C)NC(=O)c1csc(-c2oc(CN3CCN(C(=O)c4cnc(O)c(Cl)c4)CC3)nc2-c2ccc(F)cc2)n1 | ≤ 1
49 | O=C(NCC1CC1)c1csc(-c2c(-c3ccc(F)cc3)n[nH]c2C2CCNCC2)n1 | ≤ 1
50 | COCCNC(=O)c1csc(-c2sc(C)nc2-c2ccc(F)cc2)n1 | ≤ 1
51 | Cc1nc(-c2ccc(F)cc2)c(-c2nc(C(=O)NCc3ccccc3Cl)cs2)s1 | ≤ 1
52 | CC(C)NC(=O)c1csc(-c2oc(CN3CCN(C(=O)c4ccc(OC(C)C)cc4)CC3)nc2-c2ccc(F)cc2)n1 | ≤ 1
53 | Cc1nc(-c2ccc(F)cc2)c(-c2nc(C(=O)NCc3ccc(F)cc3F)cs2)s1 | ≤ 1
54 | CCCN(C)Cc1onc(-c2ccc(F)cc2)c1-c1nc(C(=O)NC(C)C)cs1 | ≤ 1
55 | COc1ccc(CNC(=O)c2csc(-c3sc(C)nc3-c3ccc(F)cc3)n2)cc1 | ≤ 1
56 | Cc1ccc(S(=O)(=O)NCCNCc2nc(-c3ccc(F)cc3)c(-c3nc(C(=O)NC(C)C)cs3)o2)cc1 | ≤ 1
57 | CCCCOc1ccc(C(=O)N2CCN(Cc3nc(-c4ccc(F)cc4)c(-c4nc(C(=O)NC(C)C)cs4)o3)CC2)cc1 | ≤ 1
58 | CC(C)NC(=O)c1csc(-c2c(-c3ccc(F)cc3)n[nH]c2C2CCN(C(=O)[C@H](C)O)CC2)n1 | ≤ 1
59 | Cc1nc(-c2ccc(F)cc2)c(-c2nc(C(=O)Nc3ccc4c(c3)OCO4)cs2)s1 | ≤ 1
60 | CC(C)NC(=O)c1csc(-c2oc(CNC(=O)c3cccc(Cl)c3[N+](=O)[O-])nc2-c2ccc(F)cc2)n1 | ≤ 1
61 | CC(=O)Nc1ccc(NC(=O)c2csc(-c3sc(C)nc3-c3ccc(F)cc3)n2)cc1 | ≤ 1
62 | Cc1nc(-c2ccc(F)cc2)c(-c2nc(C(=O)NCCCN3CCOCC3)cs2)s1 | ≤ 1

Row | SMILES | IC50 [µM]
63 | CC(C)NC(=O)c1csc(-c2c(-c3ccc(F)cc3)n[nH]c2C2CCN(C(=O)C3CN(C(=O)OC(C)(C)C)CCN3)CC2)n1 (configuration not stated) | ≤ 1
64 | CC(C)NC(=O)c1csc(-c2oc(CNC(=O)c3cccc(F)c3F)nc2-c2ccc(F)cc2)n1 | ≤ 1
65 | O=C(NCC(F)(F)F)c1csc(-c2c(-c3ccc(F)cc3)ncn2C2CCNCC2)n1 | ≤ 1
66 | CC(=O)c1cccc(NCc2onc(-c3ccc(F)cc3)c2-c2nc(C(=O)NC(C)C)cs2)c1 | ≤ 1
67 | CC(C)NC(=O)c1csc(-c2c(-c3ccc(F)cc3)n[nH]c2C2CCN(C(=O)CO)CC2)n1 | ≤ 1
68 | Cc1nc(-c2ccc(F)cc2)c(-c2nc(C(=O)Nc3c(C)cccc3C(C)(C)C)cs2)s1 | ≤ 1
69 | CC(C)NC(=O)c1csc(-c2oc(CNC(=O)c3ccc(F)c([N+](=O)[O-])c3)nc2-c2ccc(F)cc2)n1 | ≤ 1
70 | CC(=O)Oc1ccccc1C(=O)NCc1onc(-c2ccc(F)cc2)c1-c1nc(C(=O)NC(C)C)cs1 | ≤ 1
71 | CC(C)NC(=O)c1csc(-c2c(-c3ccc(F)cc3)noc2CNC(=O)c2cccc3ccccc23)n1 | ≤ 1
72 | CC(C)NC(=O)c1csc(-c2oc(CN3CCNCC3)nc2-c2ccc(F)cc2)n1 | ≤ 1
73 | CC(C)NC(=O)c1csc(-c2oc(CNC(=O)c3ccccc3C(=O)c3ccc(O)cc3)nc2-c2ccc(F)cc2)n1 | ≤ 1
74 | Cc1nc(-c2ccc(F)cc2)c(-c2nc(C(=O)NCCc3cccc(Cl)c3)cs2)s1 | ≤ 1
75 | CCC(CO)NC(=O)c1csc(-c2c(-c3ccc(F)cc3)n[nH]c2C2CCNCC2)n1 (configuration not stated) | ≤ 1
76 | CC(C)NC(=O)c1csc(-c2c(-c3ccc(F)cc3)ncn2C2CCNCC2)n1 | ≤ 1
77 | Cc1nc(-c2ccc(F)cc2)c(-c2nc(C(=O)NCc3ccc(F)cc3)cs2)s1 | ≤ 1
78 | COCCNCc1nc(-c2ccc(F)cc2)c(-c2nc(C(=O)NC(C)C)cs2)o1 | ≤ 1
79 | CC(C)NC(=O)c1csc(-c2oc(CN3CCN(C(=O)c4cc([N+](=O)[O-])ccc4O)CC3)nc2-c2ccc(F)cc2)n1 | ≤ 1
80 | Cc1nc(-c2ccc(F)cc2)c(-c2nc(C(=O)NCC3(O)CCCCC3)cs2)s1 | ≤ 1
81 | CC(=O)Nc1ccc(NC(=O)c2csc(-c3sc(C)nc3-c3ccc(F)cc3)n2)cn1 | ≤ 1
82 | CC(C)NC(=O)c1csc(-c2oc(CN3CCN(C(=O)c4ccccc4C=O)CC3)nc2-c2ccc(F)cc2)n1 | ≤ 1
83 | Cc1nc(-c2ccc(F)cc2)c(-c2nc(C(=O)NCCc3ccccc3Cl)cs2)s1 | ≤ 1
84 | CC(C)NC(=O)c1csc(-c2oc(CNC(=O)c3ccc(Cl)cc3Cl)nc2-c2ccc(F)cc2)n1 | ≤ 1
85 | Cc1nc(-c2ccc(F)cc2)c(-c2nc(C(=O)NCCNC(=O)OC(C)(C)C)cs2)s1 | ≤ 1
86 | COc1ccc(-c2ccccc2)cc1NCc1onc(-c2ccc(F)cc2)c1-c1nc(C(=O)NC(C)C)cs1 | ≤ 1
87 | CC(C)NC(=O)c1csc(-c2c(-c3ccc(F)cc3)n[nH]c2C2CCN(C(=O)c3ccccc3C=O)CC2)n1 | ≤ 1
